≈ marks a conversion by molar mass, not a printed value.
Legend:
[1] = physchem; conditions: 25 °C, fassif, thermodynamic from solid
[2] = Kinetic solubility analysis (CLND: total chemiluminescent nitrogen determination); conditions: 1.0% DMSO, 24-hour incubation at ambient temperature, maximum theoretical concentration 100 μM; for pH 2 solubility: 0.1N HCl; for pH 7 solubility: 1×PBS buffer (pH 7.4)
[3] = Solubility in simulated intestinal fluids (FaSSIF / FeSSIF); conditions: 25 °C, thermodynamic from solid
[4] = Oral bioavailability PK in dog; type: in vivo; conditions: Beagle dog, oral gavage, solution vehicle 5% ethanol, 20% propylene glycol, 75% water; based on observed exposure of Intermediate 5 in plasma
[5] = fasted state simulated intestinal fluid (FaSSIF), fassif
[6] = fed state simulated intestinal fluid (FeSSIF), fessif

Row | solubility [3, 5] [µg/mL] | solubility [3, 6] [µg/mL] | Dog F % (solution) [4] [%] | SMILES | solubility [1] [µg/mL] | pH 2 solubility [2] [μM] | pH 7 solubility [2] [μM]
1 | – | – | – | CC(C)(C#Cc1ccc(-c2ccc(Cl)c3c(N(C(=O)[C@H]4C[C@H]4C(=O)OCOP(=O)(O)O)S(C)(=O)=O)nn(CC(F)(F)F)c23)c([C@H](Cc2cc(F)cc(F)c2)NC(=O)Cn2nc(C(F)(F)F)c3c2C(F)(F)[C@@H]2C[C@H]32)n1)S(C)(=O)=O [Compound 12, (phosphonooxy)methyl (1R,2S)-2-((4-chloro-7-(2-((S)-1-(2-((3bS,4aR)-5,5-difluoro-3-(trifluoromethyl)-3b,4,4a,5-tetrahydro-1H-cyclopropa[3,4]cyclopenta[1,2-c]pyrazol-1-yl)acetamido)-2-(3,5-difluorophenyl)ethyl)-6-(3-methyl-3-(methylsulfonyl)but-1-yn-1-yl)pyridin-3-yl)-1-(2,2,2-trifluoroethyl)-1H-indazol-3-yl)(methylsulfonyl)carbamoyl)cyclopropane-1-carboxylate] | 2100 (≈ 1760 µM) | 1 | 71
2 | – | – | – | CC(C)(C#Cc1ccc(-c2ccc(Cl)c3c(N(C(=O)[C@H]4C[C@H](C(=O)O)C4)S(C)(=O)=O)nn(CC(F)(F)F)c23)c([C@H](Cc2cc(F)cc(F)c2)NC(=O)Cn2nc(C(F)(F)F)c3c2C(F)(F)[C@@H]2C[C@H]32)n1)S(C)(=O)=O [Compound 13, (1S,3r)-3-((4-chloro-7-(2-((S)-1-(2-((3bS,4aR)-5,5-difluoro-3-(trifluoromethyl)-3b,4,4a,5-tetrahydro-1H-cyclopropa[3,4]cyclopenta[1,2-c]pyrazol-1-yl)acetamido)-2-(3,5-difluorophenyl)ethyl)-6-(3-methyl-3-(methylsulfonyl)but-1-yn-1-yl)pyridin-3-yl)-1-(2,2,2-trifluoroethyl)-1H-indazol-3-yl)(methylsulfonyl)carbamoyl)cyclobutane-1-carboxylic acid] | 9 (≈ 8.22 µM) | 1 | 15
3 | – | – | – | CC(C)(C#Cc1ccc(-c2ccc(Cl)c3c(N(C(=O)[C@H]4C[C@@H](C(=O)O)C4)S(C)(=O)=O)nn(CC(F)(F)F)c23)c([C@H](Cc2cc(F)cc(F)c2)NC(=O)Cn2nc(C(F)(F)F)c3c2C(F)(F)[C@@H]2C[C@H]32)n1)S(C)(=O)=O [Compound 14, ((1R,3s)-3-((4-chloro-7-(2-((S)-1-(2-((3bS,4aR)-5,5-difluoro-3-(trifluoromethyl)-3b,4,4a,5-tetrahydro-1H-cyclopropa[3,4]cyclopenta[1,2-c]pyrazol-1-yl)acetamido)-2-(3,5-difluorophenyl)ethyl)-6-(3-methyl-3-(methylsulfonyl)but-1-yn-1-yl)pyridin-3-yl)-1-(2,2,2-trifluoroethyl)-1H-indazol-3-yl)(methylsulfonyl)carbamoyl)cyclobutane-1-carboxylic acid)] | 9 (≈ 8.22 µM) | 1 | 8
4 | – | – | – | CC(C)(C#Cc1ccc(-c2ccc(Cl)c3c(N(C(=O)N4CCC[C@H]4C(=O)OCOP(=O)(O)O)S(C)(=O)=O)nn(CC(F)(F)F)c23)c([C@H](Cc2cc(F)cc(F)c2)NC(=O)Cn2nc(C(F)(F)F)c3c2C(F)(F)[C@@H]2C[C@H]32)n1)S(C)(=O)=O [Compound 27, (phosphonooxy)methyl ((4-chloro-7-(2-((S)-1-(2-((3bS,4aR)-5,5-difluoro-3-(trifluoromethyl)-3b,4,4a,5-tetrahydro-1H-cyclopropa[3,4]cyclopenta[1,2-c]pyrazol-1-yl)acetamido)-2-(3,5-difluorophenyl)ethyl)-6-(3-methyl-3-(methylsulfonyl)but-1-yn-1-yl)pyridin-3-yl)-1-(2,2,2-trifluoroethyl)-1H-indazol-3-yl)(methylsulfonyl)carbamoyl)-L-prolinate] | 512 (≈ 420 µM) | 2 | 68
5 | 861 (≈ 652 µM) | 1710 (≈ 1290 µM) | – | CC(C)(C#Cc1ccc(-c2ccc(Cl)c3c(N(C(=O)N4CCC[C@H]4CN(CCC(=O)O)C(=O)OCOP(=O)(O)O)S(C)(=O)=O)nn(CC(F)(F)F)c23)c([C@H](Cc2cc(F)cc(F)c2)NC(=O)Cn2nc(C(F)(F)F)c3c2C(F)(F)[C@@H]2C[C@H]32)n1)S(C)(=O)=O [Compound 34, 3-((((S)-1-((4-chloro-7-(2-((S)-1-(2-((3bS,4aR)-5,5-difluoro-3-(trifluoromethyl)-3b,4,4a,5-tetrahydro-1H-cyclopropa[3,4]cyclopenta[1,2-c]pyrazol-1-yl)acetamido)-2-(3,5-difluorophenyl)ethyl)-6-(3-methyl-3-(methylsulfonyl)but-1-yn-1-yl)pyridin-3-yl)-1-(2,2,2-trifluoroethyl)-1H-indazol-3-yl)(methylsulfonyl)carbamoyl)pyrrolidin-2-yl)methyl)(((phosphonooxy)methoxy)carbonyl)amino)propanoic acid] | – | 1 | 100
6 | > 7400 | > 5930 | – | CC(C)(C#Cc1ccc(-c2ccc(Cl)c3c(N(C(=O)N4CC[C@@H]4CN(CC(=O)O)C(=O)OCOP(=O)(O)O)S(C)(=O)=O)nn(CC(F)(F)F)c23)c([C@H](Cc2cc(F)cc(F)c2)NC(=O)Cn2nc(C(F)(F)F)c3c2C(F)(F)[C@@H]2C[C@H]32)n1)S(C)(=O)=O [Compound 36, N—(((R)-1-((4-chloro-7-(2-((S)-1-(2-((3bS,4aR)-5,5-difluoro-3-(trifluoromethyl)-3b,4,4a,5-tetrahydro-1H-cyclopropa[3,4]cyclopenta[1,2-c]pyrazol-1-yl)acetamido)-2-(3,5-difluorophenyl)ethyl)-6-(3-methyl-3-(methylsulfonyl)but-1-yn-1-yl)pyridin-3-yl)-1-(2,2,2-trifluoroethyl)-1H-indazol-3-yl)(methylsulfonyl)carbamoyl)azetidin-2-yl)methyl)-N-(((phosphonooxy)methoxy)carbonyl)glycine] | – | 1 | 100
7 | 6200 (≈ 4690 µM) | > 8370 | – | CC(C)(C#Cc1ccc(-c2ccc(Cl)c3c(N(C(=O)N4CCOC[C@@H]4CN(CC(=O)O)C(=O)OCOP(=O)(O)O)S(C)(=O)=O)nn(CC(F)(F)F)c23)c([C@H](Cc2cc(F)cc(F)c2)NC(=O)Cn2nc(C(F)(F)F)c3c2C(F)(F)[C@@H]2C[C@H]32)n1)S(C)(=O)=O [Compound 37, N—(((S)-4-((4-chloro-7-(2-((S)-1-(2-((3bS,4aR)-5,5-difluoro-3-(trifluoromethyl)-3b,4,4a,5-tetrahydro-1H-cyclopropa[3,4]cyclopenta[1,2-c]pyrazol-1-yl)acetamido)-2-(3,5-difluorophenyl)ethyl)-6-(3-methyl-3-(methylsulfonyl)but-1-yn-1-yl)pyridin-3-yl)-1-(2,2,2-trifluoroethyl)-1H-indazol-3-yl)(methylsulfonyl)carbamoyl)morpholin-3-yl)methyl)-N-(((phosphonooxy)methoxy)carbonyl)glycine] | – | 2 | 100
8 | – | – | 16 | CC(C)(C#Cc1ccc(-c2ccc(Cl)c3c(NS(C)(=O)=O)nn(CC(F)(F)F)c23)c([C@H](Cc2cc(F)cc(F)c2)NC(=O)Cn2nc(C(F)(F)F)c3c2C(F)(F)[C@@H]2C[C@H]32)n1)S(C)(=O)=O [Intermediate 5, N—((S)-1-(3-(4-chloro-3-(methylsulfonamido)-1-(2,2,2-trifluoroethyl)-1H-indazol-7-yl)-6-(3-methyl-3-(methylsulfonyl)but-1-yn-1-yl)pyridin-2-yl)-2-(3,5-difluorophenyl)ethyl)-2-((3bS,4aR)-5,5-difluoro-3-(trifluoromethyl)-3b,4,4a,5-tetrahydro-1H-cyclopropa[3,4]cyclopenta[1,2-c]pyrazol-1-yl)acetamide, reference compound] | – | 0.11 | 0.32

— US12084467B2, “Therapeutic compounds for HIV virus infection” (Gilead Sciences, Inc., priority 2021, dated 2024)
